The IC50 is the concentration at which inhibition is half-maximal. One may read the melting point as the temperature of the solid-liquid transition.

The values below come from article PMC10341573, “Design, Synthesis, and Biological Evaluation of Novel Quinazolin-4(3H)-One-Based Histone Deacetylase 6 (HDAC6) Inhibitors for Anticancer Activity” (International Journal of Molecular Sciences, 2023).

The test system of one data set is A549, MCF-7, and HT-29. On the set-up: method as in doi:10.1016/j.molstruc.2022.132422. Conditions: most active in all cell lines examined (A549, MCF-7, HT-29); read-out: IC50, antiproliferative; cited from earlier work.
Another data set deals with HCT-116 cell line. Also on record: method as in PMID 33214036. The note with it: read-out: IC50, antiproliferative; cited from earlier work.
Another data set has as its target T1, HDAC4 (Homo sapiens, UniProt P56524).
T1 construct: catalytic domain of HDAC4 (T648-T1057, full length: UniProt P56524); made in house; host or cells: E. coli BL21(DE3), pET14b vector
The experiment in a line: HDAC enzyme activity assay (fluorogenic, Boc-Lys(trifluoroacetyl)-AMC), HDAC4. The note with it: class IIa HDAC4; mean ± SD, triplicate. It is filed as biochemical.

The target in the next data set is T2, HDAC6 (Homo sapiens, UniProt Q9UBN7).
T2 construct: Full-length recombinant HDAC6 was purchased from BPS Bioscience; purchased BPS Bioscience
T2 sequence (Q9UBN7 1-1215): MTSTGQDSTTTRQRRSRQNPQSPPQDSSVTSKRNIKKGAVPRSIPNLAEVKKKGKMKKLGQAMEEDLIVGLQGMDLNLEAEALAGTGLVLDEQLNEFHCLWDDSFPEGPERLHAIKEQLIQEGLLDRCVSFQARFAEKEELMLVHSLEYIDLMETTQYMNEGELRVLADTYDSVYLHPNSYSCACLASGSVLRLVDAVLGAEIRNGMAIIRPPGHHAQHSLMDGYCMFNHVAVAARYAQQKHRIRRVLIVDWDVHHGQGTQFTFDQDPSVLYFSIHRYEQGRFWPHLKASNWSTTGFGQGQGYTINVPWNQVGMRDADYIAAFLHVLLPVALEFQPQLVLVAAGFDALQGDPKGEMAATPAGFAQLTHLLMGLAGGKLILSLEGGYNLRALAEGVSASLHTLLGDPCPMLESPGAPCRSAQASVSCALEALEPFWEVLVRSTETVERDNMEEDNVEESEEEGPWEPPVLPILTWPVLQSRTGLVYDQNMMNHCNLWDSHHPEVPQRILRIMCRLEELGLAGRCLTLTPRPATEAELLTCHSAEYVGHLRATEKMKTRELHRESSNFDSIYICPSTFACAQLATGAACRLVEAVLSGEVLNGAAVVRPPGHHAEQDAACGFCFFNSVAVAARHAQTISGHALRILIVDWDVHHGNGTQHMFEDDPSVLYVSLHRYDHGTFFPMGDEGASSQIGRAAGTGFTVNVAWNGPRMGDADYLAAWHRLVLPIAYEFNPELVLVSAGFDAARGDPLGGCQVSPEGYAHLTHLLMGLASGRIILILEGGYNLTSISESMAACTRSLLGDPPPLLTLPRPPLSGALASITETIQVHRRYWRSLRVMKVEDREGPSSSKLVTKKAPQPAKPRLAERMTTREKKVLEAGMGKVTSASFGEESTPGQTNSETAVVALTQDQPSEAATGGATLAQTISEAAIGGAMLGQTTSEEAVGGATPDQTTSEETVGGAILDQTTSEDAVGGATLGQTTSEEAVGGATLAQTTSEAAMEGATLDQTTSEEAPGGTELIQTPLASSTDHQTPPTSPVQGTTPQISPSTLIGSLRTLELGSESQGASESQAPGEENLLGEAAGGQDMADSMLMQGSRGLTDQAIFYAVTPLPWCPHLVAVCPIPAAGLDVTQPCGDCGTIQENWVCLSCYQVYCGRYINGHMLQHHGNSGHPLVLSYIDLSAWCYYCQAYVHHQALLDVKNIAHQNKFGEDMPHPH
The experiment in a line: HDAC enzyme activity assay (fluorogenic, Boc-Lys(acetyl)-AMC), HDAC6. Format: biochemical. The note with it: class IIb HDAC6; mean ± SD, triplicate.

The next data set deals with T3, HDAC8 (Homo sapiens, UniProt Q9BY41).
T3 construct: codon-optimized full-length HDAC8; made in house; host or cells: E. coli BL21(DE3), pET14b vector
T3 sequence (Q9BY41 1-377): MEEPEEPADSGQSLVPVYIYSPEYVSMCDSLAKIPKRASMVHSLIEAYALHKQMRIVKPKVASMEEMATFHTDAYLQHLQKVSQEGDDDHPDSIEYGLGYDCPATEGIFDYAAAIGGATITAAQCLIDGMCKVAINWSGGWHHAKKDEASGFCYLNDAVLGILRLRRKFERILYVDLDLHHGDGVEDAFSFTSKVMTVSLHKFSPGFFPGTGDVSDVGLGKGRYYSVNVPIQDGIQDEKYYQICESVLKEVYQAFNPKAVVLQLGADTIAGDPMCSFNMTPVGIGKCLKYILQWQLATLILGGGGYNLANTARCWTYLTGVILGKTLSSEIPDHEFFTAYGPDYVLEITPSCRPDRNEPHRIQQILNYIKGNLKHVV
The experiment in a line: HDAC enzyme activity assay (fluorogenic, Boc-Lys(trifluoroacetyl)-AMC), HDAC8. Format: biochemical. Conditions: class I HDAC8; mean ± SD, triplicate.

The next data set has as its system HCT116. The experiment in a line: MTT cell proliferation assay, HCT116. Format: cell-based, human. The note with it: Homo sapiens, read-out: IC50 ± SD HCT116.
The subject of another data set is MCF7. The experiment in a line: MTT cell proliferation assay, MCF7. Format: cell-based, human. Conditions: Homo sapiens, MCF7, 72 h, read-out: IC50 ± SD MCF7. (Tetrazolium assays rely on reduction of a dye to a coloured formazan, in cell work by metabolically active cells.)
Another data set relates to B16. The experiment in a line: MTT cell proliferation assay, B16. It is filed as cell-based, murine. Conditions: Mus musculus, read-out: IC50 ± SD B16.
Another data set has as its system HEK 293. The experiment in a line: MTT cell proliferation assay, HEK 293. It is filed as cell-based, human. The note with it: Homo sapiens, read-out: IC50 ± SD HEK 293.
In another data set the test system is HCC827 cells. Also on record: method as in PMID 34403956. Conditions: strongest against all cancer cell lines, read-out: IC50, antiproliferative; cited from earlier work.
A further data set has as its system HDAC. Also on record: method as in PMID 29223029. The note with it: quinazoline-4-(3H)-one cap group; read-out: IC50 HDAC inhibitory activity; cited from earlier work.
The conditions of data set [1]: cited from earlier work.
Setting [2] is: HCT-116, MTT, 72 h, mean ± SD, triplicate.
The mark [3] stands for this setting: MTT, 72 h, mean ± SD, triplicate.
The mark [4] stands for this setting: B16, MTT, 72 h, mean ± SD, triplicate.
The mark [5] stands for this setting: HEK293, MTT, 72 h, mean ± SD, triplicate.

SMILES strings stand for the structures. Values joined by “and” are separate entries in the source; they are usually repeats but may differ in a detail not shown here. Equal values may be shown once. Read-outs that look alike come from different tables or passages of the source.

T1 sequence (P56524 648-1057): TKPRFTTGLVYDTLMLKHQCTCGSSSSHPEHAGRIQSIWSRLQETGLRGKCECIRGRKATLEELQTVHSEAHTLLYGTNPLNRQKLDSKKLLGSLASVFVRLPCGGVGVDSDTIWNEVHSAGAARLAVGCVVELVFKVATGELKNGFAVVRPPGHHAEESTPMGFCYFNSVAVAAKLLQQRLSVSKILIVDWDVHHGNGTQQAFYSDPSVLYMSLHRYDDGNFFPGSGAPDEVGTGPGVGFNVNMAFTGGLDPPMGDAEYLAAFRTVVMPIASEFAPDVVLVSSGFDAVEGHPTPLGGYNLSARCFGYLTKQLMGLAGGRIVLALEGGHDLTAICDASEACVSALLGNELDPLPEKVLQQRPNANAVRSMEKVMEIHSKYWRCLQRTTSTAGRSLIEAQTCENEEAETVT

`C=CCn1c(SCC(=O)Nc2cccc(C(=O)/C=C/c3ccc(OC)cc3)c2)nc2ccccc2c1=O` [A]: in the data set with A549, MCF-7, and HT-29, the IC50 was 1.16 µM.

With `C/C(=N\NC(=O)c1cc([N+](=O)[O-])ccc1Cl)c1ccc(NC(=O)CSc2nc3ccccc3c(=O)n2-c2ccc(C)cc2)cc1` [B], the IC50 with HCT-116 cell line was 11.7 µM.

For `CCc1ccc(-n2c(SCc3ccc(C(=O)NO)cc3)nc3ccccc3c2=O)cc1` [Compound 5d, 4-(((3-(4-ethylphenyl)-4-oxo-3,4-dihydroquinazolin-2-yl)thio)methyl)-N-hydroxybenzamide], the melting point was 150 to 157 °C and 155 to 157 °C. In addition, it took 0.64 ± 0.37 µM to reach half-maximal inhibition on HDAC4 (IC50). The molecule further showed a half-inhibitory concentration (IC50) on HDAC6 of 0.28 ± 0.06 µM. The molecule also came in with a concentration for half-maximal inhibition (IC50) against HDAC8 of 2.3 ± 0.8 µM. In addition, the IC50 in the data set with HCT116 (setting [2]) was 34.5 ± 10.4 µM. In the data set with MCF7 (setting [3]), the half-maximal inhibitory concentration (IC50) was 21.7 ± 2.47 µM. Also, the concentration for half-maximal inhibition (IC50) with B16 (setting [4]) worked out at 29.8 ± 8.72 µM. Further, the IC50 in the data set on HEK 293 (setting [5]) is over 50 µM.

`Cc1ccc(-n2c(SCc3ccc(C(=O)NO)cc3)nc3ccccc3c2=O)cc1C` [Compound 5f, 4-(((3-(3,4-dimethylphenyl)-4-oxo-3,4-dihydroquinazolin-2-yl)thio)methyl)-N-hydroxybenzamide]: the melting point was 138 to 144 °C and 142 to 144 °C. This molecule registered a half-maximal inhibitory concentration (IC50) against HDAC4 of 1.6 ± 0.9 µM. Besides, the IC50 at HDAC6 was 0.49 ± 0.12 µM. Also, the IC50 on HDAC8 came to 3 ± 1 µM. Besides, the IC50 in the data set on HCT116 (setting [2]) was over 50 µM. The IC50 with MCF7 (setting [3]) was over 50 µM. For the same molecule, the IC50 in the data set on B16 (setting [4]) was over 50 µM. Also, the IC50 with HEK 293 (setting [5]) is over 50 µM.

In the case of `Cc1ccccc1-n1c(SCc2ccc(C(=O)NO)cc2)nc2cc(Cl)ccc2c1=O` [Compound 5k, 4-(((7-chloro-4-oxo-3-(o-tolyl)-3,4-dihydroquinazolin-2-yl)thio)methyl)-N-hydroxybenzamide], the melting point is 180 °C and 178 to 180 °C. On HDAC4, the IC50 was over 35 µM. Also, half-maximal inhibition against HDAC6 (IC50) was put at 0.41 ± 0.15 µM. The midpoint of inhibition on HDAC8, the IC50, lay at 1.3 ± 0.1 µM. Also, in the data set on HCT116 (setting [2]), the IC50 is over 50 µM. The IC50 with MCF7 (setting [3]) was over 50 µM. The IC50 in the data set with B16 (setting [4]) was over 50 µM. Besides, in the data set on HEK 293 (setting [5]), the IC50 is over 50 µM.

On to `Cc1ccc(-n2c(SCc3ccc(C(=O)NO)cc3)nc3cc(Cl)ccc3c2=O)cc1` [Compound 5l, 4-(((7-chloro-4-oxo-3-(p-tolyl)-3,4-dihydroquinazolin-2-yl)thio)methyl)-N-hydroxybenzamide], for which the melting point is 170 to 175 °C and 173 to 175 °C. Besides, on HDAC4, the IC50 turned out to be 19 µM. At HDAC6, this molecule returned an IC50 of 3.9 ± 0.4 µM. Further, on HDAC8, the IC50 worked out at 17 µM. In addition, the IC50 with HCT116 (setting [2]) is over 50 µM. For the same molecule, the IC50 with MCF7 (setting [3]) was over 50 µM. Moreover, the IC50 in the data set on B16 (setting [4]) is over 50 µM. For the same molecule, the IC50 in the data set with HEK 293 (setting [5]) was over 50 µM.

On to `O=C(NO)c1ccc(CSc2nc3cc(Cl)ccc3c(=O)n2-c2ccc(Cl)cc2)cc1` [Compound 5n, 4-(((7-chloro-3-(4-chlorophenyl)-4-oxo-3,4-dihydroquinazolin-2-yl)thio)methyl)-N-hydroxybenzamide], for which the melting point is 230 to 235 °C and 234 to 235 °C. At HDAC4, this molecule returned an IC50 of 6.7 ± 1.1 µM. The same molecule returned an IC50 against HDAC6 of 0.32 ± 0.03 µM. Further, at HDAC8, it took 0.14 ± 0.02 µM to reach half-maximal inhibition (IC50). For the same molecule, in the data set with HCT116 (setting [2]), the IC50 is over 50 µM. Besides, the IC50 with MCF7 (setting [3]) was over 50 µM. In the data set on B16 (setting [4]), the IC50 was found to be 33.9 ± 5.12 µM. In addition, in the data set on HEK 293 (setting [5]), the IC50 was over 50 µM.

Consider `O=C(c1ccccc1)N(C(=O)c1ccccc1)c1ccc(-c2ccc3ncn(Cc4ccccc4)c(=O)c3c2)cn1` [Compound C], for which, in the data set with HCC827 cells, the IC50 was 1.12 µM.

Consider `COc1cc2ncn(Cc3ccc(C(=O)NO)cc3)c(=O)c2cc1OC` [G], for which the half-inhibitory concentration (IC50) in the data set on HDAC was 0.37 µM.

As to `O=C(NO)c1ccc(CN(c2cnccn2)c2cnccn2)cc1` [KA2507], in data set [1] (phase I/II), the clinical activity result is given as “prolonged dis-ease stabilization in a subset of patients” and the “toxicity in clinical trial” value is “no significant toxicities”.

In the case of `O=C(CCCCCCNC(=O)c1cnc(N(c2ccccc2)c2ccccc2)nc1)NO` [Ricolinostat, reference compound], the IC50 in the data set on HCT116 (HCT-116, 72 h) is 40.5 ± 7.69 µM; in the data set with MCF7, over 50 µM; with B16 (B16, 72 h), 89.2 ± 12.5 µM; with HEK 293 (HEK293, 72 h) it was 66.8 ± 10.6 µM. In addition, in [1] (multiple myeloma), the “outcome of combination therapy with bortezomib and dexamethasone” value was “safe, well-tolerated, and active against multiple myeloma”. Besides, the “safety of combination with paclitaxel” value in data set [1] (patients with metastatic breast cancer) is “could be safely combined with paclitaxel”. The single-agent therapy outcome in data set [1] (single agent) is on record as “neither significant toxicities nor clinical responses”.
